From ChEMBL document CHEMBL5370583, “Cytotoxic Ergosteroids from a Strain of the Fungus Talaromyces adpressus” (J Nat Prod, 2023)
Activity calls are given as the source filed them. The calls are words filed in the database; no cut-off is given here.

Legend:
[1] = Immunosuppressive activity in C57BL/6J mouse B-lymphocyte assessed as inhibition of LPS-induced cell proliferation at 0.3125 to 40 uM incubated for 72 hrs by flow cytometry analysis; format: functional, cell-based; conditions: dose 0.3125-40 µM
A549 = experiment: Cytotoxicity against human A549 cells assessed as cell growth inhibition by MTT assay; format: functional, cell-based
SU-DHL-2 [2] = experiment: Cytotoxicity against human SUDHL2 cells assessed as cell growth inhibition by MTT assay; format: functional, cell-based
[3] = Cytotoxicity against human […] cells assessed as cell growth inhibition by MTT assay; format: functional, cell-based
HepG2 = experiment: Cytotoxicity against human HepG2 cells assessed as cell growth inhibition by MTT assay; format: functional, cell-based
HL-60 = experiment: Cytotoxicity against human HL-60 cells assessed as cell growth inhibition by MTT assay; format: functional, cell-based
SU-DHL-2 [4] = experiment: Induction of apoptosis in human SUDHL2 cells assessed as necrotic cells at 2 uM measured by Annexin V-FITC/PI staining based flow cytometry assay (reference value: 0.23%); format: functional
SU-DHL-2 [5] = experiment: Induction of apoptosis in human SUDHL2 cells assessed as late apoptotic cells at 2 uM measured by Annexin V-FITC/PI staining based flow cytometry assay (reference value: 3.10%); format: functional
SU-DHL-2 [6] = experiment: Induction of apoptosis in human SUDHL2 cells assessed as necrotic cells at 10 uM measured by Annexin V-FITC/PI staining based flow cytometry assay (reference value: 0.23%); format: functional
SU-DHL-2 [7] = experiment: Induction of apoptosis in human SUDHL2 cells assessed as early apoptotic cells at 2 uM measured by Annexin V-FITC/PI staining based flow cytometry assay (reference value: 4.52%); format: functional
SU-DHL-2 [8] = experiment: Induction of apoptosis in human SUDHL2 cells assessed as viable cells at 2 uM measured by Annexin V-FITC/PI staining based flow cytometry assay (reference value: 92.2%); format: functional; conditions: read-out: Activity
SU-DHL-2 [9] = experiment: Induction of apoptosis in human SUDHL2 cells assessed as late apoptotic cells at 10 uM measured by Annexin V-FITC/PI staining based flow cytometry assay (reference value: 3.10%); format: functional
SU-DHL-2 [10] = experiment: Induction of apoptosis in human SUDHL2 cells assessed as viable cells at 10 uM measured by Annexin V-FITC/PI staining based flow cytometry assay (reference value: 92.2%); format: functional; conditions: read-out: Activity
SU-DHL-2 [11] = experiment: Induction of apoptosis in human SUDHL2 cells assessed as early apoptotic cells at 10 uM measured by Annexin V-FITC/PI staining based flow cytometry assay (reference value: 4.52%); format: functional
B-cell line = experiment: Immunosuppressive activity in C57BL/6J mouse B-lymphocyte assessed as inhibition of LPS-induced cell proliferation incubated for 72 hrs by flow cytometry analysis; format: functional, cell-based

| SMILES | inhibition [1] | IC50 (A549) | IC50 (SU-DHL-2 [2]) | IC50 [3] | IC50 (HepG2) | IC50 (HL-60) | further results |
| --- | --- | --- | --- | --- | --- | --- | --- |
| CC(C)[C@@H](C)/C=C/[C@@H](C)[C@H]1CC(=O)C2=C3[C@H](O)[C@H]4O[C@]45C[C@@H](O)CC[C@]5(C)[C@@]3(O)CC[C@@]21C | inactive |  |  |  |  |  |  |
| CC(C)[C@@H](C)/C=C/[C@@H](C)[C@H]1CC[C@]2(O)C3=CC(=O)[C@@H]4[C@@]5(O)CC[C@]4(C)[C@]3(CC[C@]12C)OC5=O | inactive |  |  |  |  |  |  |
| COC(=O)[C@@]12CC[C@@]3(C)[C@]1(O)C(=O)C=C1[C@@]4(O)CC[C@H]([C@H](C)/C=C/[C@H](C)C(C)C)[C@@]4(C)CC[C@@]13OO2 | inactive | > 40 µM | > 40 µM | > 40 µM | > 40 µM | 32 µM |  |
| CO[C@@H]1C=C2C=CC3=C4C(=O)C[C@H]([C@H](C)/C=C/[C@H](C)C(C)C)[C@@]4(C)CC[C@]3(O)[C@@]2(C)CC1 | inactive | > 40 µM | > 40 µM | > 40 µM | > 40 µM | 25 µM |  |
| CC(C)[C@@H](C)/C=C/[C@@H](C)[C@H]1CCC(=O)[C@]23CC(=O)C4=CC(=O)CC[C@]4(C)[C@H]2CC[C@]13C [DANKASTERONE A] | inactive | 25 µM | 6.6 µM | > 40 µM | 12 µM | 3.8 µM |  |
| COC1(OC)CC[C@@]2(C)[C@H](C1)C(=O)C=C1[C@@H]2[C@H](OC(C)=O)C[C@]2(C)[C@@H]([C@H](C)/C=C/C(C)C(C)(C)O)CC[C@@H]12 (single isomer, unassigned) | inactive | 13 µM | 25 µM | 11 µM | 29 µM | 8.3 µM |  |
| CC(C)[C@@H](C)/C=C/[C@@H](C)[C@H]1CCC(=O)[C@]23CC(=O)[C@@H]4CC(=O)CC[C@]4(C)[C@H]2CC[C@]13C | inactive |  |  |  |  |  |  |
| CC(C)[C@@H](C)/C=C/[C@@H](C)[C@H]1CC[C@@]2(O)C3=CC(=O)C4=CC(=O)CC[C@]4(C)[C@@]3(O)CC[C@]12C | inactive |  |  |  |  |  |  |
| CC(C)[C@@H](C)/C=C/[C@@H](C)[C@H]1CC(=O)C2=C3[C@H](O)[C@H]4O[C@]45C[C@@H](O)CC[C@]5(C)[C@H]3CC[C@@]21C | inactive |  |  |  |  |  |  |
| C=C(CC[C@@H](C(=O)O)[C@H]1CC[C@H]2C3=C[C@@H](O)[C@@]45O[C@@H]4[C@H](O)[C@@H]4O[C@@H]4[C@]5(C)[C@H]3CC[C@]12C)C(C)C | inactive | > 40 µM | > 40 µM | > 40 µM | > 40 µM | > 40 µM |  |
| COc1cc([C@@H]2c3cc4c(cc3[C@@H](O[C@@H]3O[C@@H]5CO[C@@H](C)O[C@H]5[C@H](O)[C@H]3O)[C@H]3COC(=O)[C@H]23)OCO4)cc(OC)c1O [ETOPOSIDE] |  | 10 µM | 2.1 µM | 52 µM | 21 µM | 2.1 µM |  |
| C=C(CC[C@@H](C(=O)O)[C@H]1CC[C@H]2C3=C[C@@H](O)[C@@]45O[C@@H]4C(=O)C=C[C@]5(C)[C@H]3CC[C@]12C)C(C)C | inactive | > 40 µM | 6.9 µM | 13 µM | 24 µM | 7.3 µM |  |
| CO[C@@H]1C=C2[C@@H]3CC[C@H]([C@H](C)/C=C/[C@H](C)C(C)C)[C@@]3(C)C[C@H]3O[C@@]23[C@@]2(C)CC[C@H](O)C[C@]12O | inactive | 18 µM | 0.4 µM | 14 µM | 24 µM | 6.1 µM | Activity (SU-DHL-2 [4]): 0.87%; Activity (SU-DHL-2 [5]): 14.3%; Activity (SU-DHL-2 [6]): 4.02%; Activity (SU-DHL-2 [7]): 6.67%; viability at 2 µM (SU-DHL-2 [8]): 78.2%; Activity (SU-DHL-2 [9]): 54%; viability at 10 µM (SU-DHL-2 [10]): 26.9%; Activity (SU-DHL-2 [11]): 15% |
| CC(C)[C@@H](C)/C=C/[C@@H](C)[C@H]1C[C@@H](O)C2=C3C=CC4=CC(=O)CC[C@]4(C)[C@@]3(O)CC[C@@]21C |  | > 40 µM | > 40 µM | > 40 µM | > 40 µM | > 40 µM | IC50 (B-cell line): 8.6 µM |
| COC(=O)[C@@]12CC[C@@]3(C)[C@]1(O)C(=O)C=C1[C@]4(O)CC[C@H]([C@H](C)/C=C/[C@H](C)C(C)C)[C@@]4(C)CC[C@@]13OO2 | inactive | > 40 µM | > 40 µM | > 40 µM | > 40 µM | > 40 µM |  |
| CC(=O)O[C@@H]1C[C@]2(C)[C@@H]([C@H](C)/C=C/[C@H](C)C(C)(C)O)CC[C@H]2C2=CC(=O)[C@H]3CC(=O)CC[C@]3(C)[C@H]21 | inactive | 22 µM | 19 µM | 9.2 µM | 25 µM | 11 µM |  |
| CC(C)[C@@H](C)/C=C/[C@@H](C)[C@H]1CC[C@]2(O)C3=CC(=O)C4=CC(=O)CC[C@]4(C)[C@@]3(O)CC[C@]12C | inactive | 31 µM | 7.5 µM | 30 µM | 19 µM | 8.8 µM |  |
